Reference: ChEMBL document CHEMBL5131508, “Photoactivatable o-Hydroxycinnamic Platforms for Bioimaging and Therapeutic Release” (J Med Chem, 2022)

Experiments:
[1] = Solubility of compound in acetonitrile/water; type: physicochemical
[2] = Stability of compound assessed as compound degradation under dark condition measured after 20 days by 1H-NMR analysis; type: physicochemical; conditions: time 20 day; read-out: Drug degradation

SMILES: C=CCCCCCCCCOC(=O)/C=C/c1cccc(C(C)(C)C)c1O
- solubility [1]: Soluble
- degraded at 480 h [2]: 6%
